pIC50: −log10 of the molar value.
Columns and labels:
[1] = molecular target: T1, human NK1 receptor (Homo sapiens, UniProt P25103); assay: inhibition of [3H]-Substance P binding to membranes from human IM9 cell line
T1 construct: membranes prepared from the human IM9 cell line expressing the human NK1 receptor; endogenous in cells; host or cells: human IM9 cell line (membranes)
Source text: The affinity of the compounds of the formula (I) for the human NK1 receptor can be determined in vitro by determining their ability to inhibit [^3H]-Substance P binding to membranes prepared from the human IM9 cell line expressing the human NK1 receptor using a modification of the method described in McLean, S. et al, J. Pharm.Exp.Ther., 267, 472-9 (1993) in which whole cells were used.

[2] = molecular target: T2, human NK2 receptor (Homo sapiens, UniProt P21452); assay: competition with [3H]-NKA for binding to membranes from Chinese hamster ovary cells expressing the cloned receptor; conditions: CHO cell membranes, 90 min, 25° C.
T2 construct: expressed in transfected cells; host or cells: Chinese hamster ovary cells (membranes)
T2 sequence (P21452 1-398): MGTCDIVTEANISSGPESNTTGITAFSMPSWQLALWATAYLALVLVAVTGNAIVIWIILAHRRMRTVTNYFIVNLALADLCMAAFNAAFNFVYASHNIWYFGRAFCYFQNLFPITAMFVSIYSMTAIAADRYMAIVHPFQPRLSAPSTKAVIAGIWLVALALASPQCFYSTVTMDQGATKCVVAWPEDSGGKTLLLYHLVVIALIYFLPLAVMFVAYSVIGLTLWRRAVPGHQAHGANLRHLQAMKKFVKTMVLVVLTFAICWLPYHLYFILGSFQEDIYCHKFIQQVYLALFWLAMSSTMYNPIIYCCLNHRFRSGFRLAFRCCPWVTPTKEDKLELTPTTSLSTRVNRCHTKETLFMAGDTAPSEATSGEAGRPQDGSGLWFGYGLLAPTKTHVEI
Description: The affinity of the compounds of formula (I) for the human NK2 receptor can be determined in vitro by determining their ability to compete with [^3H]-NKA (neurokinin A) for binding to membranes prepared from Chinese hamster ovary cells expressing the cloned human NK2 receptor. In this method, washed Chinese hamster ovary cell membranes are prepared as described for the previous method where IM9 cells are used instead. The membranes are incubated (90 min, 25° C.) with [^3H]-NKA and with a range of concentrations of the test compound. Non-specific binding is determined in the presence of 10 μM NKA.

T1 sequence (P25103 whole entry): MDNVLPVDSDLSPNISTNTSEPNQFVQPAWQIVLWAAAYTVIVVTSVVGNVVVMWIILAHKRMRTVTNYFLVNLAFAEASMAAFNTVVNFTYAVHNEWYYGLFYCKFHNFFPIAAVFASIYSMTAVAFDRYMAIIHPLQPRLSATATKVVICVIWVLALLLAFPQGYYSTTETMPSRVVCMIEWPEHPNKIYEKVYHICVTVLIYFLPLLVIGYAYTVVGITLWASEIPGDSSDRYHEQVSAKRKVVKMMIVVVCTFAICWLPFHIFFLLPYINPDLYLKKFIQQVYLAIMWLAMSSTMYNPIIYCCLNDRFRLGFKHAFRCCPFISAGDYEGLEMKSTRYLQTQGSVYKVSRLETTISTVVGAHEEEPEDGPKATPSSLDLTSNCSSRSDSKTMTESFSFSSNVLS

Structure (SMILES) | pIC50 [1] | pIC50 [2]
Cc1cccc(C(=O)c2nccn2CC(CC[N+]23CCC(c4ccccc4)(CC2)CC3)c2ccc(Cl)c(Cl)c2)c1C (stereo not shown) [Example 2] | 9.22 | 8.40
O=C(c1cccc2c1OCC2)c1nccn1CC(CC[N+]12CCC(c3ccccc3)(CC1)CC2)c1ccc(Cl)c(Cl)c1 (stereo not shown) [Example 5] | 8.10 | 7.96
O=C(c1ccc2ccccc2c1)c1nccn1CC(CC[N+]12CCC(c3ccccc3)(CC1)CC2)c1ccc(Cl)c(Cl)c1 (stereo not shown) [Example 6] | 8.05 | 7.02
O=C(c1cccc2c1CCCC2)c1nccn1C[C@@H](CC[N+]12CCC(c3ccccc3)(CC1)CC2)c1ccc(Cl)c(Cl)c1 [Example 18, 4-Phenyl-1-(3(S)-[3,4-dichlorophenyl]-4-[2-(1,2,3,4-tetrahydro-5-naphthoyl)imidazol-1-yl]butyl)quinuclidinium methanesulphonate] | 6.91 | 8.52
O=C(c1cccc2c1CCCC2)c1nccn1C[C@H](CC[N+]12CCC(c3ccccc3)(CC1)CC2)c1ccc(Cl)c(Cl)c1 [Example 19, 4-Phenyl-1-(3(R)-[3,4-dichlorophenyl]-4-[2-(1,2.3,4-tetrahydro-5-naphthoyl)imidazol-1-yl]butyl)quinuclidinium methanesulphonate] | 8.70 | 7.62
